# Measurements published in patent US8785393B2, “Ophthalmic pharmaceutical compositions of DP2 receptor antagonists” (Panmira Pharmaceuticals, LLC, priority 2009, dated 2014).
# What was measured:
# [1] = tested on: guinea pig model of allergic conjunctivitis; assay: Guinea pig model of allergic conjunctivitis (ovalbumin); type: in vivo, Hartley Guinea pigs
# Protocol: A guinea pig model of allergic conjunctivitis is used to test the effect of topical administration of a DP2 receptor antagonist to the eye on the development of allergic conjunctivitis. Male Hartley Guinea pigs ages 4-8 weeks (300-500 grams) at the beginning of the experiment were sensitized by intraperitoneal injection of ovalbumin [0.5 ml of a 100 μg/ml solution in Imject Alum. An additional 0.5 ml of the ovalbumin (OVA) solution is injected subcutaneous in the proximity of the lymph nodes (Muise et al., 2002). Twenty one days after sensitization, guinea pigs received an ocular challenge. Briefly, animals were secured within a towel and placed in a lateral recumbent position. Ten microliters of saline or OVA (2.5% in Saline) was topically applied to each eye, followed by 2-3 manually forced blinks. This procedure is repeated again on day 23. Clinical scoring of redness (using a scale of 0-3), edema (using a scale of 0-3) and discharge (using a scale of 0-4) were evaluated 90 minutes after challenge on day 23. The itch/scratch response was observed and recorded (using a scale of 0-3) for the first 30 minutes after challenge on day 23. The DP2 receptor antagonist (compound 2; {2′-[(N-cyclopropanecarbonyl-N-ethyl-amino)-methyl]-6-methoxy-4′-trifluoromethyl-biphenyl-3-yl}-acetic acid) was administered on days 21-23 by topical application using the procedure described above in a concentration of 300 ng/eye in PBS vehicle. Oral administration was also evaluated by gavage of compound 2 (10 mg/kg) prepared in 0.5% Methylcellulose or water. The means±standard error of the mean were plotted and analyzed by one-way ANOVA using Graphpad Prizm.
# [2] = tested on: mouse model of ragweed-induced allergic conjunctivitis; assay: Mouse ragweed allergic conjunctivitis; type: in vivo; settings: topical 0.3% in PBS, three times daily, days 9-15, FIG. 5
# Protocol: A mouse model of ragweed-induced allergic conjunctivitis was used to test the efficacy of topical administration of a DP2 receptor antagonist to the eye on the development of allergic conjunctivitis. Compound 2 was evaluated in a mouse model of ocular allergy. In this model, a systemic sensitization with an allergen (Short Ragweed, SRW) was followed by topical challenge with the same allergen. For sensitization a suspension of 50 μg of short ragweed allergen (SRW, Greer, Lenoir, NC, USA) 25 μl of Aluminum Hydroxide (13 mg/ml, Sigma Aldrich) was injected into both hind rear footpads (Day 0). On days 9 through 15, topical treatment with compound 2 (0.3% in PBS), positive control (Prednisolone Acetate 1% in hypromellose), or vehicle control (PBS) was administered three times daily. Mice were dosed topically to the central cornea using a calibrated micropipette, with a 5 μL drop of treatment in each eye. On days 13 through 15 mice were challenged with topical doses of 1000 μg SRW suspension in 5 μl PBS in each eye. SRW was prepared fresh daily, and used within 3 hours of mixing, and mixed well before administration to ensure homogeneity. Thirty minutes after the final challenge (Day 15) clinical signs (discharge, lid swelling hyperemia, chemosis, and squinting) were evaluated using the aid of a dissecting microscope. A cumulative score was also recorded including all parameters measured with the exception of squinting.
# [3] = tested on: respiratory syncytial virus (RSV) eye infection; type: in vivo; settings: topical 60 ng/eye once daily, 14 days
# Protocol: A mouse model of respiratory syncytial virus (RSV) eye infection is used to test the effects of ocular application of DP2 receptor antagonist compound on RSV-induced ocular immunopathology (Bitko V, et al., J. Virol. 2007; 81(2):783-90; Bitko V, et al., Nat. Med. 2005; 11(1):50-5). Each mouse eye is topically treated with 60 ng DP2 receptor antagonist compound or vehicle (sterile saline) in a volume of 2 μl. The DP2 receptor antagonist compound is instilled 40 min after virus inoculum and then once daily over the entire duration of the protocol (14 days).
# Instillation of virus and inhibitor in the eye. Female BALB/c mice, 6 to 8 weeks old, are purchased from Charles River Laboratories. […]
# Ocular pathology. Ocular disease is evaluated with a slit lamp biomicroscope (Bitko V, et al., J. Virol. 2007; 81(2):783-90)15; Girgis et al., Invest. […] Pathology is scored on a scale of 0 to 5 as follows: 0=clear eye; 1=slight redness in the corners; 2=moderate redness and injection; 3=conjunctival and corneal injection with ciliary flush; 4=extensive injection, generally associated with some mucus; 5=most extensive injection, associated with mucus. Eyes are examined in a coded fashion with the reader unaware of the treatment given. The presence of gummy residue or mucin in the eyes is recorded. […]
# [4] = topical 300 ng/eye in PBS, days 21-23, scored 90 minutes after challenge on day 23, FIG. 3
# [5] = scored 30 min after final challenge (Day 15)
structure (smiles),measurement,setting,value
"CCN(Cc1cc(C(F)(F)F)ccc1-c1cc(CC(=O)O)ccc1OC)C(=O)C1CC1 [compound 2, {2′-[(N-cyclopropanecarbonyl-N-ethyl-amino)-methyl]-6-methoxy-4′-trifluoromethyl-biphenyl-3-yl}-acetic acid]","any endpoint (redness, edema, discharge, itch/scratch, clinical score)",[1]; oral gavage 10 mg/kg,failed to impact any endpoint
same,cummulative clinical score,"[1]; topical 300 ng/eye in PBS, days 21-23, after ocular antigen challenge, FIG. 3",significantly reduced
same,itch/scratch response,"[1]; topical 300 ng/eye in PBS, days 21-23, first 30 minutes after challenge on day 23, FIG. 3",trend toward reduction
same,Ocular edema,[1]; [4],trend toward reduction
same,discharge,[1]; [4],significantly reduced
same,redness,[1]; [4],significantly reduced
same,cumulative clinical score,[2]; all parameters except squinting,significantly reduced
same,chemosis,[2]; [5],significantly reduced
same,discharge,[2]; [5],significantly reduced
same,lid swelling,[2]; [5],significantly reduced
same,RSV eye pathology,[3]; FIG. 4 (A),reduced
same,eye IL4 induction,[3]; FIG. 4 (B),reduced
